Assay results: patent US7943550B2, “4-(3-Aminobenzoyl)-1 methylpyrazoles and their use as herbicides” (Bayer Cropscience AG, priority 2007, dated 2011)
Like-named read-outs stand apart in the source and are kept apart here.

Experiments:
Format in all cases: in vivo
Polygonum convolvulus [1] = test: Pre-emergence herbicidal action against harmful plants; conditions: Comparative Table 7, 320 g a.i./ha, visual scoring 3-4 weeks after treatment
Description: (§1) 1. Pre-Emergence Herbicidal Action Against Harmful Plants Seeds or rhizome pieces of mono- and dicotyledonous harmful plants are placed in sandy loam in pots of a diameter of 9 to 13 cm and covered with soil. The herbicides, formulated as emulsifiable concentrates or dusts, are applied to the surface of the covering soil in the form of aqueous dispersions or suspensions or emulsions at an application rate of 300 to 800 l of water/ha (converted), at various dosages. For further cultivation of the plants, the pots are then kept in a greenhouse under optimum conditions. The visual scoring of the damage to the harmful plants is carried out 3-4 weeks after the treatment. As shown by the results of these comparative tables, the selected compounds according to the invention have better herbicidal activity against a broad spectrum of economically important mono- and dicotyledonous harmful plants than the compounds disclosed in the prior art.

Cyperus serotinus = test: as above; conditions: Comparative Table 7, 320 g a.i./ha, visual scoring 3-4 weeks after treatment
Description: as §1

Veronica persica [2] = test: as above; conditions: Comparative Table 7, 320 g a.i./ha, visual scoring 3-4 weeks after treatment
Description: as §1

Veronica persica [3] = test: Post-emergence herbicidal action against harmful plants; conditions: scored after 3 to 4 weeks
Description: (§2) 2. Post-Emergence Herbicidal Action Against Harmful Plants
(§3) Seeds of mono- and dicotyledonous harmful plants are placed in sandy loam in cardboard pots, covered with soil and grown in the greenhouse under good growth conditions. Two to three weeks after sowing, the test plants are treated at the three-leaf stage. The compounds according to the invention, which are formulated as wettable powders or as emulsion concentrates, are sprayed at an application rate of 600 to 800 l of water/ha (converted) in a dosage stated in tables 1 to 5 onto the surface of the green plant parts. After the test plants have been left to stand in the greenhouse for 3 to 4 weeks under optimum growth conditions, the action of the compounds according to the invention is scored in comparison to compounds disclosed in the prior art. As shown by the results of these comparison tables, the selected compounds according to the invention have better herbicidal activity against a broad spectrum of economically important mono- and dicotyledonous harmful plants than the compounds disclosed in the prior art.

Galium aparine = test: as above; conditions: Comparative Table 4, 20 g a.i./ha, scored after 3 to 4 weeks
Description: as §2, §3

Setaria viridis [4] = test: as above; conditions: scored after 3 to 4 weeks, read-out: Activity against harmful plants SETVI; for pest or weed control at 80 g/ha: Comparative Table 2, 80 g a.i./ha
Description: as §2, §3

Digitaria sanguinalis = test: as above; conditions: Comparative Table 4, 20 g a.i./ha, scored after 3 to 4 weeks
Description: as §2, §3

Polygonum convolvulus [5] = test: as above; conditions: Comparative Table 1, 20 g a.i./ha, scored after 3 to 4 weeks
Description: as §2, §3

Viola tricolor = test: as above; conditions: scored after 3 to 4 weeks
Description: as §2, §3

Xanthium strumarium = test: as above; conditions: Comparative Table 1, 20 g a.i./ha, scored after 3 to 4 weeks
Description: as §2, §3

Amaranthus retroflexus [6] = test: as above; conditions: scored after 3 to 4 weeks
Description: as §2, §3

Pharbitis purpureum = test: as above; conditions: scored after 3 to 4 weeks
Description: as §2, §3

Echinochloa crus galli = test: Pre-emergence herbicidal action against harmful plants; conditions: visual scoring 3-4 weeks after treatment
Description: as §1

Avena fatua = test: as above; conditions: Comparative Table 5, 80 g a.i./ha, visual scoring 3-4 weeks after treatment
Description: as §1

Setaria viridis [7] = test: as above; conditions: visual scoring 3-4 weeks after treatment
Description: as §1

Amaranthus retroflexus [8] = test: as above; conditions: Comparative Table 5, 80 g a.i./ha, visual scoring 3-4 weeks after treatment
Description: as §1

Stellaria media = test: Post-emergence herbicidal action against harmful plants; conditions: Comparative Table 8, 20 g a.i./ha, scored after 3 to 4 weeks
Description: as §2, §3

Abutilon theophrasti = test: as above; conditions: Comparative Table 8, 20 g a.i./ha, scored after 3 to 4 weeks
Description: as §2, §3

[9] = Comparative Table 4, 20 g a.i./ha
[10] = Comparative Table 1, 20 g a.i./ha
[11] = Comparative Table 2, 80 g a.i./ha
[12] = Comparative Table 5, 80 g a.i./ha
[13] = Comparative Table 8, 20 g a.i./ha
[14] = Comparative Table 6, 20 g a.i./ha
[15] = Comparative Table 3, 20 g a.i./ha

Cc1c(C(=O)c2cnn(C)c2O)ccc(S(C)(=O)=O)c1NCC1CC1
Activity against harmful plants POLCO (Polygonum convolvulus [1]): 60% | Activity against harmful plants CYPES (Cyperus serotinus): 100% | Activity against harmful plants VERPE (Veronica persica [2]): 100%

CCCNc1c(S(C)(=O)=O)ccc(C(=O)c2cnn(C)c2O)c1C
Activity against harmful plants VERPE (Veronica persica [3]; [9]): 70% | Activity against harmful plants GALAP (Galium aparine): 80% | pest or weed control at 20 g/ha (Setaria viridis [4]; [9]): 80% | Activity against harmful plants DIGSA (Digitaria sanguinalis): 90%

CNc1c(S(C)(=O)=O)ccc(C(=O)c2cnn(C)c2O)c1Cl
Activity against harmful plants POLCO (Polygonum convolvulus [5]): 40% | Activity against harmful plants VIOTR (Viola tricolor; [10]): 70% | Activity against harmful plants XANST (Xanthium strumarium): 50% | Activity against harmful plants AMARE (Amaranthus retroflexus [6]; [10]): 70%

COCCCN(C)c1c(S(C)(=O)=O)ccc(C(=O)c2cnn(C)c2O)c1C
Activity against harmful plants PHBPU (Pharbitis purpureum; [11]): 70% | pest or weed control at 80 g/ha (Setaria viridis [4]): 100% | Activity against harmful plants VIOTR (Viola tricolor; [11]): 90% | Activity against harmful plants AMARE (Amaranthus retroflexus [6]; [11]): 100%

CCOCCNc1c(S(C)(=O)=O)ccc(C(=O)c2cnn(C)c2O)c1Cl
Activity against harmful plants ECHCG (Echinochloa crus galli; [12]): 40% | Activity against harmful plants AVEFA (Avena fatua): 0% | Activity against harmful plants SETVI (Setaria viridis [7]; [12]): 80% | Activity against harmful plants AMARE (Amaranthus retroflexus [8]): 80%

Cc1c(C(=O)c2cnn(C)c2O)ccc(S(C)(=O)=O)c1N(C)CC1CC1
Activity against harmful plants STEME (Stellaria media): 100% | Activity against harmful plants ABUTH (Abutilon theophrasti): 90% | Activity against harmful plants VERPE (Veronica persica [3]; [13]): 80% | pest or weed control at 20 g/ha (Setaria viridis [4]; [13]): 90%

CCOCCNc1c(S(C)(=O)=O)ccc(C(=O)c2cnn(C)c2O)c1C
Activity against harmful plants ECHCG (Echinochloa crus galli; [12]): 100% | Activity against harmful plants AVEFA (Avena fatua): 50% | Activity against harmful plants SETVI (Setaria viridis [7]; [12]): 100% | Activity against harmful plants AMARE (Amaranthus retroflexus [8]): 100%

CCCNc1c(S(C)(=O)=O)ccc(C(=O)c2cnn(C)c2O)c1Cl
Activity against harmful plants VERPE (Veronica persica [3]; [9]): 30% | Activity against harmful plants GALAP (Galium aparine): 30% | pest or weed control at 20 g/ha (Setaria viridis [4]; [9]): 50% | Activity against harmful plants DIGSA (Digitaria sanguinalis): 70%

Cn1ncc(C(=O)c2ccc(S(C)(=O)=O)c(NCC3CC3)c2Cl)c1O
Activity against harmful plants POLCO (Polygonum convolvulus [1]): 0% | Activity against harmful plants CYPES (Cyperus serotinus): 40% | Activity against harmful plants VERPE (Veronica persica [2]): 80%

CCNc1c(S(C)(=O)=O)ccc(C(=O)c2cnn(C)c2O)c1C
Activity against harmful plants ECHCG (Echinochloa crus galli; [14]): 90% | Activity against harmful plants SETVI (Setaria viridis [7]; [14]): 60%

COCCN(C)c1c(S(C)(=O)=O)ccc(C(=O)c2cnn(C)c2O)c1C
Activity against harmful plants PHBPU (Pharbitis purpureum; [15]): 80% | Activity against harmful plants VERPE (Veronica persica [3]; [15]): 100% | pest or weed control at 20 g/ha (Setaria viridis [4]; [15]): 90% | Activity against harmful plants AMARE (Amaranthus retroflexus [6]; [15]): 90%

CN(CC1CC1)c1c(S(C)(=O)=O)ccc(C(=O)c2cnn(C)c2O)c1Cl
Activity against harmful plants STEME (Stellaria media): 80% | Activity against harmful plants ABUTH (Abutilon theophrasti): 70% | Activity against harmful plants VERPE (Veronica persica [3]; [13]): 60% | pest or weed control at 20 g/ha (Setaria viridis [4]; [13]): 30%

COCCCN(C)c1c(S(C)(=O)=O)ccc(C(=O)c2cnn(C)c2O)c1Cl
Activity against harmful plants PHBPU (Pharbitis purpureum; [11]): 40% | pest or weed control at 80 g/ha (Setaria viridis [4]): 0% | Activity against harmful plants VIOTR (Viola tricolor; [11]): 70% | Activity against harmful plants AMARE (Amaranthus retroflexus [6]; [11]): 70%

CNc1c(S(C)(=O)=O)ccc(C(=O)c2cnn(C)c2O)c1C
Activity against harmful plants POLCO (Polygonum convolvulus [5]): 90% | Activity against harmful plants VIOTR (Viola tricolor; [10]): 100% | Activity against harmful plants XANST (Xanthium strumarium): 80% | Activity against harmful plants AMARE (Amaranthus retroflexus [6]; [10]): 90%

COCCN(C)c1c(S(C)(=O)=O)ccc(C(=O)c2cnn(C)c2O)c1Cl
Activity against harmful plants PHBPU (Pharbitis purpureum; [15]): 30% | Activity against harmful plants VERPE (Veronica persica [3]; [15]): 60% | pest or weed control at 20 g/ha (Setaria viridis [4]; [15]): 50% | Activity against harmful plants AMARE (Amaranthus retroflexus [6]; [15]): 60%

CCNc1c(S(C)(=O)=O)ccc(C(=O)c2cnn(C)c2O)c1Cl
Activity against harmful plants ECHCG (Echinochloa crus galli; [14]): 60% | Activity against harmful plants SETVI (Setaria viridis [7]; [14]): 0%
